Test results taken from patent US20050148763A1, “Peg-binding pth or peg-binding pth derivative” (Chugai Seiyaku Kabushiki Kaisha, priority 2002, published 2005).

Assays:
[1] = Hypercalcemic effect of PEG-PTH(1-34) in normal female DDY mice; type: in vivo; details: sc, hPTH(1-34) 50-500 nmol/kg, 5 k PEG-PTH(1-34) 150 nmol/kg
Protocol: 2 k and 5 k PEG-PTH(1-34) were also adjusted similarly to 30 nmol/mL (calculated as PTH) and allowed to stand on ice immediately before administration.
Male BDF1 mice at 5 weeks of age (Charles River Japan, Inc.) were measured for their body weight. Immediately before drug administration, blood was collected by orbital puncture into heparinized capillary tubes and measured for baseline levels of blood ionized calcium and pH using a Ca^2+/pH analyzer (Model 348/Bayer Medical Ltd.) to give the corrected level of ionized calcium at pH 7.4 for each sample. The mice received subcutaneous administration of each drug at a dose of 5 mL/kg. […] At 1, 3 and 6 hours after administration, blood was collected by orbital puncture to monitor the time course of corrected blood ionized calcium levels.
The same experiment was repeated on female DDY mice at 5 weeks of age (Charles River Japan, Inc.). The mice received subcutaneous administration of each drug at a dose of 5 mL/kg. […] At 1, 3 and 6 hours after administration, blood was collected by orbital puncture to monitor the time course of corrected blood ionized calcium levels.

[2] = Hypotensive effect in anesthetized rats; type: in vivo; details: sc
Protocol: The mono-methoxy 5 k PEG-PTH(1-34) prepared in Example 1(2) was also adjusted similarly to 36.5, 18.3 and 9.1 μg/mL (calculated as PTH(1-34)). The samples thus prepared were then stored on ice and restored to room temperature about 30 minutes before administration.
Female SD rats at 10 weeks of age (Charles River Japan, Inc.) were anesthetized by intraperitoneal administration of 50 mg/kg pentobarbital sodium (Abbott Laboratories). A catheter for blood pressure measurement and a catheter for anesthesia maintenance were inserted into the femoral artery and vein, respectively, of each rat. Anesthesia was maintained using a syringe pump (Terumo Corporation) to ensure continuous injection (at 22.5 mg/kg/hour) of pentobarbital sodium (powder form, Tokyo Kasei Kogyo Co., Ltd.) dissolved in physiological saline (Otsuka Pharmaceutical Co., Ltd.). On the other hand, each catheter for blood pressure measurement was filled with 100 U/mL heparin sodium (Novo Nordisk A/S) in physiological saline. To measure systemic blood pressure, a pressure transducer (Nihon Kohden Corporation) was connected to the catheter for blood pressure measurement and signals from the transducer were input to a blood pressure amplifier (Nihon Kohden Corporation). The resulting data were averaged for use as an indicator of systemic blood pressure. The output of systemic blood pressure was, in turn, input to a measuring unit for instantaneous heart rate (Nihon Kohden Corporation) to determine heart rate. These parameters were continuously recorded on a thermal pen recorder (Graphtec Corporation) at a speed of 5 mm/min. After surgery, an injection needle for administration of a test substance was inserted into the dorsal subcutaneous region of each rat. After each parameter had stabilized, test drugs were administered. […] This figure illustrates changes in blood pressure induced by administration of a negative control (buffer), 50 μg/kg hPTH (1-34) and 36.5 μg/kg 5 k PEG-PTH(1-34) in this order from the upper panel. In addition, the average value of blood pressure before PTH administration and the value at the maximum blood pressure drop after administration were measured for each case to determine the difference between these two values. […] The vertical axis represents the maximum blood pressure drop (mmHg) and the horizontal axis represents the amount of PTH administered.

human PTH1 receptors = target: T1, human PTH1 receptors (Homo sapiens, UniProt Q03431); assay: in vitro ability to produce cAMP, HKRK-B64 cells; type: cell-based; details: Table 2(2), n=2-3
T1 construct: expressed in transfected cells; host or cells: HKRK-B7 and HKRK-B64 cells (derived from pig kidney LLC-PK1 cells)
T1 sequence (Q03431 27-593): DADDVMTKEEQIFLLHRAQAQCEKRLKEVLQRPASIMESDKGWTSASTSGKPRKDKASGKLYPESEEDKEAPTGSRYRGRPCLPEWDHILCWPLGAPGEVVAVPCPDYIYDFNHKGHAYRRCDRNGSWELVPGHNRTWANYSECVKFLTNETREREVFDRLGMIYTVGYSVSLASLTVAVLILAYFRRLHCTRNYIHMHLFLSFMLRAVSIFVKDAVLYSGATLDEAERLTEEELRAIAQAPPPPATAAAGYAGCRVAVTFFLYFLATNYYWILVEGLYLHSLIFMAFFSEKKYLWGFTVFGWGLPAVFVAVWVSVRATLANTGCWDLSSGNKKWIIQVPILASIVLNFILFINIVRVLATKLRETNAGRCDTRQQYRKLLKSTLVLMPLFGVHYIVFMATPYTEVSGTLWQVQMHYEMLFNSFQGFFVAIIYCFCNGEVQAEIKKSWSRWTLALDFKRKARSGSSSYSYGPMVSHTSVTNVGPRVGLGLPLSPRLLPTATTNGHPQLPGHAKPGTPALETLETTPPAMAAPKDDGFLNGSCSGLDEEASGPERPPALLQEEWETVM
Protocol: Each PEG-PTH sample was assayed for its ability to produce cAMP (indicative of the increasing effect of PTH on bone mass) as follows. HKRK-B7 and HKRK-B64 cells, genetically modified from pig kidney-derived LLC-PK1 cells to overexpress human PTH1 receptors at levels of about 1×10^6 and 9×10^4 receptors per cell, respectively, as well as EW29 cells expressing about 1.9×10^5 rat PTH1 receptors per cell (Takasu et al., J. Bone. Miner. Res. 14: 11-20, 1999) were grown in DMEM supplemented with 10% FBS, 1% penicillin and 1% streptomycin. These cells were seeded in 96-well plates at 1×10^5 cells/well and incubated overnight. On the following day, the cells were washed once with 200 μL binding buffer (50 mM Tris-HCl/100 mM NaCl/5 mM KCl/2 mM CaCl2/5% inactivated horse serum/0.5% inactivated bovine serum, pH 7.7), followed by addition of 100 μL cAMP assay buffer (DMEM/2 mM 3-isobutyl-1-methylxanthine/1 mg/mL bovine serum albumin/35 mM HEPES-NaOH, pH 7.4) on ice. […] After removing the reaction solution, the plates were placed on powdered dry ice to freeze the cells and then removed from the dry ice. The cells were thawed with 50 μL of 50 mM HCl and frozen again on dry ice. The level of intracellular cAMP was determined with a commercially available EIA kit (Biotrak cAMP EIA system, Amersham).

| Molecule | time of maximum increase in blood ionized calcium levels after administration [1] [h] | hypotensive effect after administration (in words) ([2]; anesthetized female SD rats) | hypotensive effect over doses, maximum blood pressure drop (in words) ([2]; anesthetized rats, hPTH(1-34) 12.5-50 μg/kg, 5 k PEG-PTH(1-34) 9.1-36.5 μg/kg) | Maximum cAMP response (human PTH1 receptors) [pmol/well] | EC50 (human PTH1 receptors; cAMP production) [nM] |
| --- | --- | --- | --- | --- | --- |
| CC[C@H](C)[C@H](NC(=O)[C@H](CCC(=O)O)NC(=O)[C@H](CO)NC(=O)[C@@H](NC(=O)[C@@H](N)CO)C(C)C)C(=O)N[C@@H](CCC(N)=O)C(=O)N[C@@H](CC(C)C)C(=O)N[C@@H](CCSC)C(=O)N[C@@H](Cc1cnc[nH]1)C(=O)N[C@@H](CC(N)=O)C(=O)N[C@@H](CC(C)C)C(=O)NCC(=O)N[C@@H](CCCCN)C(=O)N[C@@H](Cc1cnc[nH]1)C(=O)N[C@@H](CC(C)C)C(=O)N[C@@H](CC(N)=O)C(=O)N[C@@H](CO)C(=O)N[C@@H](CCSC)C(=O)N[C@@H](CCC(=O)O)C(=O)N[C@@H](CCCN=C(N)N)C(=O)N[C@H](C(=O)N[C@@H](CCC(=O)O)C(=O)N[C@@H](Cc1c[nH]c2ccccc12)C(=O)N[C@@H](CC(C)C)C(=O)N[C@@H](CCCN=C(N)N)C(=O)N[C@@H](CCCCN)C(=O)N[C@@H](CCCCN)C(=O)N[C@@H](CC(C)C)C(=O)N[C@@H](CCC(N)=O)C(=O)N[C@@H](CC(=O)O)C(=O)N[C@H](C(=O)N[C@@H](Cc1cnc[nH]1)C(=O)N[C@@H](CC(N)=O)C(=O)N[C@@H](Cc1ccccc1)C(=O)O)C(C)C)C(C)C [hPTH(1-34), reference compound] | 3 | strong hypotensive effect immediately after administration | dose-dependent hypotensive effect in the range of 12.5 μg/kg to 50 μg/kg |  |  |
| 2 k PEG-[Cys^35]-hPTH(1-35): [Cys^35]-PTH(1-35) conjugated with mPEG 2 k-MAL (2 kDa methoxy-PEG-maleimide) at the C-terminal cysteine (SVSEIQLMHNLGKHLNSMERVEWLRKKLQDVHNFC; Parathyroid hormone 2 kDa mPEG-maleimide at Cys35; UniProt P01270 32-66, looked up, variant V35C) |  |  |  | 65.4 ± 19.4 | 0.6 |
